Target: T1, ATP-sensitive inward rectifier potassium channel 1 (Homo sapiens, UniProt P48048)
T1 sequence (P48048 whole entry): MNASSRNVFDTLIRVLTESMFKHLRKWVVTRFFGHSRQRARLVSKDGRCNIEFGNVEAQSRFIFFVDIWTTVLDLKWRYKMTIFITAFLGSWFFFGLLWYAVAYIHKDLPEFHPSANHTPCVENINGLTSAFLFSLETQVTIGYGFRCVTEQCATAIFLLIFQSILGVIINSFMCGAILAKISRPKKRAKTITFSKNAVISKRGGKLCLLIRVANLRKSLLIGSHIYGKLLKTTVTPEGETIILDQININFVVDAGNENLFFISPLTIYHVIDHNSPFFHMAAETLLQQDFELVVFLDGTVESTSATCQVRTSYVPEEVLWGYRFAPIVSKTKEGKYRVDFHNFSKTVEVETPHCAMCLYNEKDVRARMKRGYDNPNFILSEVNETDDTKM
Assay: Electrophysiology Assay: The coverslip plated with cells was placed in the experiment chamber perfused with bath solution composed of (in mM): 135 NaCl, 5 KCl, 2 CaCl2), 1 MgCl2, 10 HEPES, 5 Glucose (pH 7.4). Patch pipettes with resistance between 2-5 Megaohms, when filled with a solution containing (in mM): 135 KCl, 1 EGTA, 1 MgCl2, 10 HEPES, 2 Na2ATP (pH 7.3), were used to form gigaseals. The …

Structure (SMILES): Cc1c([C@@H](O)CNCc2cnn(-c3ccc4oc(=O)n(C)c4c3)c2)ccc2c1COC2=O
- IC50: 12 nM
